Source: patent US10246456B2, “IRAK4 inhibiting agents” (BIOGEN MA INC., priority 2014, dated 2019)

target: IRAK4 (Homo sapiens (Human), UniProt Q9NWZ3); assay: IRAK-4 AlphaScreen biochemical kinase assay; conditions: 1 nM IRAK4, 1 mM ATP, 3.5 h at RT
Summary of the method: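 AlphaScreen read-out: streptavidin beads bind the biotinylated peptide and protein A beads bind the anti-phosphothreonine antibody, so energy transfer reports phosphorylation of the peptide. The kinase is human IRAK-4.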

IRAK4, sequence (Q9NWZ3 whole entry, species assumed): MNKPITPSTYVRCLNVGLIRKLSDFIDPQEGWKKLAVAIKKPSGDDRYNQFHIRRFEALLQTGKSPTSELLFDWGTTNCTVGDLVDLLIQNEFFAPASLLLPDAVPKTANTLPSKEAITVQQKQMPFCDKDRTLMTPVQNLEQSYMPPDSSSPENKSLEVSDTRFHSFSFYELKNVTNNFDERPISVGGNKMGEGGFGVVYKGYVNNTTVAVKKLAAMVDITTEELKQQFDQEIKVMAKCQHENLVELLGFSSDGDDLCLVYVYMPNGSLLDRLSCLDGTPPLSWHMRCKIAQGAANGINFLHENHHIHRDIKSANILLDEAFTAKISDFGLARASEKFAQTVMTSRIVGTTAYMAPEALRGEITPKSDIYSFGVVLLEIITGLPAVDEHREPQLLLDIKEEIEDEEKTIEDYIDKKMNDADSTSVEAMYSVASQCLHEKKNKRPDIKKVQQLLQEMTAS

IC50 | SMILES
< 0.1 µM | NCc1cccc(-c2ccc3cnn(-c4cccc(CO)n4)c3c2)n1 [Example 291, (6-(6-(6-(aminomethyl)pyridin-2-yl)-1H-indazol-1-yl)pyridin-2-yl)methanol]
< 0.1 µM | Cc1ccnc(-n2ncc3ccc(-c4cncc(N)c4)cc32)n1 [Example 36, 5-(1-(4-methylpyrimidin-2-yl)-1H-indazol-6-yl)pyridin-3-amine]
< 0.1 µM | CCOc1cc(-c2cccc(C(C)N)n2)cc2c1cnn2-c1cccc(C)n1 (centres unmarked) [Example 245, 1-(6-(4-ethoxy-1-(6-methylpyridin-2-yl)-1H-indazol-6-yl)pyridin-2-yl)ethanamine]
< 0.1 µM | Cc1cccc(-n2ncc3ccc(-c4cc(N)cc(C(C)N)n4)cc32)n1 (centres unmarked) [Example 256, 2-(1-aminoethyl)-6-(1-(6-methylpyridin-2-yl)-1H-indazol-6-yl)pyridin-4-amine]
1 to 10 µM | C[S+]([O-])CC(N)c1cccc(-c2ccc3cnn(-c4cccc(CO)n4)c3c2)n1 (centres unmarked) [Example 568, (6-(6-(6-(1-amino-2-(methylsulfinyl)ethyl)pyridin-2-yl)-1H-indazol-1-yl)pyridin-2-yl)methanol]
< 0.1 µM | CC(N)c1cccc(-c2cc(F)c3cnn(-c4cccc(C(F)(F)F)n4)c3c2)n1 (centres unmarked) [Example 240, 1-(6-(4-fluoro-1-(6-(trifluoromethyl)pyridin-2-yl)-1H-indazol-6-yl)pyridin-2-yl)ethanamine]
< 0.1 µM | N[C@@H](CCCO)c1cccc(-c2ccc3cnn(-c4cccc(CO)n4)c3c2)n1 [Example 396, (S)-4-amino-4-(6-(1-(6-(hydroxymethyl)pyridin-2-yl)-1H-indazol-6-yl)pyridin-2-yl)butan-1-ol]
< 0.1 µM | Cc1cccc(-c2ncc3ccc(-c4cncc(N)c4)cn23)n1 [Example 41, 5-(3-(6-methylpyridin-2-yl)imidazo[1,5-a]pyridin-6-yl)pyridin-3-amine]
0.1 to 1 µM | Cc1cccc(-n2ncc3ccc(-c4cccc(C(C)O)n4)cc32)n1 (centres unmarked) [Example 130, 1-(6-(1-(6-methylpyridin-2-yl)-1H-indazol-6-yl)pyridin-2-yl)ethanol]
< 0.1 µM | COc1cc(-c2cccc(C(C)N)n2)cc2c1cnn2-c1cccc(C)n1 (centres unmarked) [Example 246, 1-(6-(4-methoxy-1-(6-methylpyridin-2-yl)-1H-indazol-6-yl)pyridin-2-yl)ethanamine]
0.1 to 1 µM | Cc1cccc(-n2ncc3ccc(-c4csc(CO)n4)cc32)n1 [Example 320, (4-(1-(6-methylpyridin-2-yl)-1H-indazol-6-yl)thiazol-2-yl)methanol]
< 0.1 µM | CCC[C@H](N)c1cccc(-c2cc(-c3ncc(C)o3)c3cnn(-c4cccc(CO)n4)c3c2)n1 [Example 582, (S)-(6-(6-(6-(1-aminobutyl)pyridin-2-yl)-4-(5-methyloxazol-2-yl)-1H-indazol-1-yl)pyridin-2-yl)methanol]
< 0.1 µM | COCCOc1cc(-c2cccc(C3(N)CCCC3)n2)cc2c1cnn2-c1cccc(CO)n1 [Example 469, (6-(6-(6-(1-aminocyclopentyl)pyridin-2-yl)-4-(2-methoxyethoxy)-1H-indazol-1-yl)pyridin-2-yl)methanol]
< 0.1 µM | CC(N)c1cccc(-c2ccc3cnn(-c4nccc(C(F)(F)F)n4)c3c2)n1 (centres unmarked) [Example 297, 1-(6-(1-(4-(trifluoromethyl)pyrimidin-2-yl)-1H-indazol-6-yl)pyridin-2-yl)ethanamine]
1 to 10 µM | CC(=O)c1cccc(-c2cc(Cl)c3cnn(-c4cccc(C)n4)c3c2)n1 [Example 218, 1-(6-(4-chloro-1-(6-methylpyridin-2-yl)-1H-indazol-6-yl)pyridin-2-yl)ethanone]
1 to 10 µM | CC(N)c1cccc(-c2ccc3cnn(-c4ccnc(C#N)n4)c3c2)n1 (centres unmarked) [Example 562, 4-(6-(6-(1-aminoethyl)pyridin-2-yl)-1H-indazol-1-yl)pyrimidine-2-carbonitrile]
0.1 to 1 µM | Cc1cccc(-n2ncc3ccc(-c4cccc(C(O)C(F)(F)F)n4)cc32)n1 (centres unmarked) [Example 244, 2,2,2-trifluoro-1-(6-(1-(6-methylpyridin-2-yl)-1H-indazol-6-yl)pyridin-2-yl)ethanol]
1 to 10 µM | C/C(=N/O)c1cccc(-c2cc(Cl)c3cnn(-c4cccc(C)n4)c3c2)n1 [Example 219, (Z)-1-(6-(4-chloro-1-(6-methylpyridin-2-yl)-1H-indazol-6-yl)pyridin-2-yl)ethanone oxime]

IC50 | SMILES
0.1 to 1 µM | Cc1cccc(-n2ncc3ccc(-c4cccc(CC#N)n4)cc32)n1 [Example 249, 2-(6-(1-(6-methylpyridin-2-yl)-1H-indazol-6-yl)pyridin-2-yl)acetonitrile]
< 0.1 µM | Cn1ccc(-c2cc(-c3cccc([C@@H](N)CCCO)n3)cc3c2cnn3-c2cccc(CO)n2)n1 [Example 395, (S)-4-amino-4-(6-(1-(6-(hydroxymethyl)pyridin-2-yl)-4-(1-methyl-1H-pyrazol-3-yl)-1H-indazol-6-yl)pyridin-2-yl)butan-1-ol]
< 0.1 µM | COCCOc1cc(-c2cccc(C3(N)CCC3)n2)cc2c1cnn2-c1cccc(CO)n1 [Example 467, (6-(6-(6-(1-aminocyclobutyl)pyridin-2-yl)-4-(2-methoxyethoxy)-1H-indazol-1-yl)pyridin-2-yl)methanol]
< 0.1 µM | CCC[C@@H](N)c1ccnc(-c2cc(OC)c3cnn(-c4cccc(CO)n4)c3c2)n1 [Example 576, (R)-(6-(6-(4-(1-aminobutyl)pyrimidin-2-yl)-4-methoxy-1H-indazol-1-yl)pyridin-2-yl)methanol]
< 0.1 µM | CC[C@H](N)c1cccc(-c2cc(OCCOC)c3cnn(-c4cccc(CO)n4)c3c2)n1 [Example 587, (S)-(6-(6-(6-(1-aminopropyl)pyridin-2-yl)-4-(2-methoxyethoxy)-1H-indazol-1-yl)pyridin-2-yl)methanol]
< 0.1 µM | CC(N)c1cccc(-c2ccc3cnn(-c4cccc(CO)n4)c3c2)n1 (centres unmarked) [Example 123, (6-(6-(6-(1-aminoethyl)pyridin-2-yl)-1H-indazol-1-yl)pyridin-2-yl)methanol]
< 0.1 µM | CC(N)c1cccc(-c2ccc3cnn(-c4cccc(C(F)(F)F)n4)c3c2)c1 (centres unmarked) [Example 89, 1-(3-(1-(6-(trifluoromethyl)pyridin-2-yl)-1H-indazol-6-yl)phenyl)ethanamine]
< 0.1 µM | Cc1cccc(-n2ncc3c(-c4ncc[nH]4)cc(-c4cccc(C(C)N)n4)cc32)n1 (centres unmarked) [Example 295, 1-(6-(4-(1H-imidazol-2-yl)-1-(6-methylpyridin-2-yl)-1H-indazol-6-yl)pyridin-2-yl)ethanamine]
1 to 10 µM | CC(=O)c1cccc(-c2ccc3cnn(-c4ccccn4)c3c2)n1 [Example 229, 1-(6-(1-(pyridin-2-yl)-1H-indazol-6-yl)pyridin-2-yl)ethanone]
< 0.1 µM | N#CCC[C@H](N)c1cccc(-c2ccc3cnn(-c4cccc(CO)n4)c3c2)n1 [Example 592, (S)-4-amino-4-(6-(1-(6-(hydroxymethyl)pyridin-2-yl)-1H-indazol-6-yl)pyridin-2-yl)butanenitrile]
1 to 10 µM | Cc1cccc(-n2ncc3ccc(-c4cccc(CCC(F)(F)F)n4)cc32)n1 [Example 313, 1-(6-methylpyridin-2-yl)-6-(6-(3,3,3-trifluoropropyl)pyridin-2-yl)-1H-indazole]
0.1 to 1 µM | Cc1cccc(-n2ncc3ccc(-c4cccc(C5(N)CC5)n4)cc32)n1 [Example 262, 1-(6-(1-(6-methylpyridin-2-yl)-1H-indazol-6-yl)pyridin-2-yl)cyclopropanamine]
0.1 to 1 µM | Nc1cncc(-c2ccc3cnn(-c4cccc(C(F)(F)F)n4)c3c2)n1 [Example 96, 6-(1-(6-(trifluoromethyl)pyridin-2-yl)-1H-indazol-6-yl)pyrazin-2-amine]
< 0.1 µM | CC(N)c1cccc(-c2cc(CO)c3cnn(-c4cccc(C(F)(F)F)n4)c3c2)n1 (centres unmarked) [Example 57, (6-(6-(1-aminoethyl)pyridin-2-yl)-1-(6-(trifluoromethyl)pyridin-2-yl)-1H-indazol-4-yl)methanol]
< 0.1 µM | Cc1cccc(-n2ncc3c(-c4nccs4)cc(-c4cccc(C(C)N)n4)cc32)n1 (centres unmarked) [Example 303, 1-(6-(1-(6-methylpyridin-2-yl)-4-(thiazol-2-yl)-1H-indazol-6-yl)pyridin-2-yl)ethanamine]
> 10 µM | Cc1cccc(-n2ncc3ccc(-c4cccc5c4CCNC5=O)cc32)n1 [Example 206, 5-(1-(6-methylpyridin-2-yl)-1H-indazol-6-yl)-3,4-dihydroisoquinolin-1(2H)-one]
< 0.1 µM | C[C@@H](N)c1cccc(-c2ccc3cnn(-c4cccc(CO)n4)c3c2)n1 [Example 144, (R)-(6-(6-(6-(1-aminoethyl)pyridin-2-yl)-1H-indazol-1-yl)pyridin-2-yl)methanol]

SMILES | IC50
N[C@@H](CF)c1cccc(-c2ccc3cnn(-c4cccc(CO)n4)c3c2)n1 [Example 589, (R)-(6-(6-(6-(1-amino-2-fluoroethyl)pyridin-2-yl)-1H-indazol-1-yl)pyridin-2-yl)methanol] | < 0.1 µM
Cc1nc(-n2ncc3ccc(-c4cccc(C(C)N)n4)cc32)cs1 (centres unmarked) [Example 136, 1-(6-(1-(2-methylthiazol-4-yl)-1H-indazol-6-yl)pyridin-2-yl)ethanamine] | 0.1 to 1 µM
Cc1cccc(-n2ncc3ccc(-c4cccc5c4CCN(C)C5)cc32)n1 [Example 16, 2-methyl-5-(1-(6-methylpyridin-2-yl)-1H-indazol-6-yl)-1,2,3,4-tetrahydroisoquinoline] | 1 to 10 µM
CCC[C@@H](N)c1cccc(-c2ccc3cnn(-c4cccc(CO)n4)c3c2)n1 [Example 146, (R)-(6-(6-(6-(1-aminobutyl)pyridin-2-yl)-1H-indazol-1-yl)pyridin-2-yl)methanol] | < 0.1 µM
CCc1cccc(-n2ncc3ccc(-c4cccc(C(C)N)n4)cc32)n1 (centres unmarked) [Example 120, 1-(6-(1-(6-ethylpyridin-2-yl)-1H-indazol-6-yl)pyridin-2-yl)ethanamine] | < 0.1 µM
Cc1cccc(-n2ncc3c(CO)cc(-c4cccc(C(C)N)n4)cc32)n1 (centres unmarked) [Example 114, (6-(6-(1-aminoethyl)pyridin-2-yl)-1-(6-methylpyridin-2-yl)-1H-indazol-4-yl)methanol] | < 0.1 µM
